Patent US5578496A, “Detection of autoantibodies associated with the disease myasthenia gravis” (Board of Regents, Baylor College of Medicine, priority 1994, dated 1996)

Tested on: antibodies against human ACHR α chain peptides
Assay: Binding of anti-peptide antibodies to the peptides on Co-Bind plate
Parameters: species or system mice
Conditions: antisera diluted 1:500 (v/v) with PBS/0.05% casein; corrected for nonspecific binding to casein
Description: Anti-peptide antibodies were raised in outbred mice by immunization in the hind footpads of 50 μg of synthetic peptide in 100 μl emulsion prepared from equal volumes of PBS and Freund's complete adjuvant. The immunizations were done on day 1, day 15, day 30 and day 45. Rabbit immune IgG fractions with specificity against human IgG and human IgM and mouse IgG and IgM were obtained from DAKO Co. (DAKO-immunoglobulins a/s, Denmark) and Accurate Chemical Scientific Corp. (Westbury, N.Y.), respectively.
1.0 mg of peptide was dissolved in 5 μl of dimethylformamide and then diluted to 50 μg/ml with 0.15M NaCl in 0.01M sodium phosphate buffer, pH 7.2, containing 0.01% thimerosal (PBS). Aliquots of the peptide solution, were applied to wells of the 96-well Co-Bind plate. The plates were incubated at room temperature overnight with continuous gentle rocking. After washing three times with PBS, the wells were quenched (3 hrs., room temperature) with 0.2 ml of 1.0M glycine-NaOH, pH 7.2. After washing the wells three times with PBS, an aliquot (100 μl) of a 0.1% solution of casein in PBS were added to each well and the plates were incubated at 37° C. for 90 min to block the remaining reactive groups on the wells. The plates were then washed three times with PBS and incubated (37° C., 4 hrs) with 100 μl of plasma or mouse antiserum (1:200 or 1:500 dilution with PBS containing 0.1% casein). For binding to peptide α182-198, the plates were blocked with, and plasma were diluted in, 0.5% (instead of 0.1%) casein in PBS. After washing four times with PBS, the plates were incubated (4° C., overnight) with 100 μl of rabbit anti-human (IgG+IgM) or anti-mouse (IgG+IgM) (2.5 μg/ml) in PBS containing 0.1% casein. The plates were washed four times with PBS and incubated (3 hrs., room temperature) with ^125 I-labeled protein A (2×10^5 cpm) in 100 μl of PBS-0.1% casein. After washing five times with PBS, bound radioactivity was removed from the wells, by the addition of 100 μl of 5% SDS in 0.2N NaOH. The plates were allowed to stand for 20 min at room temperature and the solutions were then transferred quantitatively to small test tubes for counting. This procedure was repeated three times, and the solutions in each case were added to the respective tubes. The samples were counted on a Beckman 4000 gamma counter. The radioactivity bound by three unrelated proteins (casein, cytochrome C and bovine serum albumin) and a nonsense peptide (ESSGTGIESSGTGI) (Atassi et al. 1987) were used as controls to correct for nonspecific binding. It should be noted that in other experiments, in which the plates were blocked and all dilutions were made with PBS containing human adult hemoglobin or bovine serum albumin, the non-specific binding was considerably higher than when casein was used.
To confirm that the synthetic human AChR peptides can be coupled to Co-Bind plate, they were used to raise anti-peptide antibodies in mice. The peptides were bound onto the well of Co-Bind plates, followed by reaction with the respective anti-peptide antibody, pre-diluted 1:500 (v/v) with PBS/0.05% casein.

Compound | Antibody Binding to immunizing Peptide (CPM)
α67-82: synthetic peptide, residues α67-82 of human AChR α-chain (WNPDDYGGVKKIHIPS) | 22884 CPM
α78-93: synthetic peptide, residues α78-93 of human AChR α-chain (IHIPSEKIWRPDLVLY) | 4433 CPM
α170-186: synthetic peptide, residues α170-186 of human AChR α-chain (FMESGEWVIKESRGWKH) | 71323 CPM
α134-150: synthetic peptide, residues α134-150 of human AChR α-chain (HFPFDEQNGSMKLGTWT) | 52077 CPM
α23-38: synthetic peptide, residues α23-38 of human AChR α-chain (EDHRQVVEVTVGLQLI) | 71893 CPM
α56-71: synthetic peptide, residues α56-71 of human AChR α-chain (LKQQWVDYNLKWNPDD) | 36038 CPM
α146-162: synthetic peptide, residues α146-162 of human AChR α-chain (LGTWTYDGSVVAINPES) | 13649 CPM
α89-104: synthetic peptide, residues α89-104 of human AChR α-chain (DLVLYNNADGDFAIVK) | 29199 CPM
α100-115: synthetic peptide, residues α100-115 of human AChR α-chain (FAIVKFTKVLLQYTGH) | 57717 CPM
α158-174: synthetic peptide, residues α158-174 of human AChR α-chain (INPESDQPDLSNFMESG) | 14799 CPM
α1-16: synthetic peptide, residues α1-16 of human AChR α-chain (SEHETRLVAKLFKDYS) | 78940 CPM
α45-60: synthetic peptide, residues α45-60 of human AChR α-chain (EVNQIVTTNVRLKQQW) | 82404 CPM
α194-210: synthetic peptide, residues α194-210 of human AChR α-chain (PDTPYLDITYHFVMQRL) | 66804 CPM
α34-49: synthetic peptide, residues α34-49 of human AChR α-chain (GLQLIQLINVDEVNQI) | 62360 CPM

Tested on: experimental autoimmune myasthenia gravis (EAMG)
Assay: Electromyography (repetitive nerve stimulation) for electrophysiological EAMG after immunization with Torpedo AChR
Assay type: in vivo, C57/BL6 mice
Conditions: EAMG-positive mouse with -33% decrement; 3 minutes after i.p. injection of 250 μg
Description: Six weeks old C57/BL6 mice were purchased from Charles River Breeding Laboratories (Wilmington, Mass.). Preimmune sera were obtained from the mice for use as controls in subsequent antibody binding assays. […] Then, on day 0, the mice were immunized subcutaneously in one hind footpad and intramuscularly in the same side shoulder with 20 μg of Torpedo AChR in 100 μl emulsion containing equal volumes of complete Freund's adjuvant and PBS. Thirty days later, the mice were immunized with a similar dose of the receptor in the opposite footpad and shoulder. On the 37th day, test bleeds were obtained from the mice for determination of the antibody titers. Electrophysiological studies were performed on the 38th and 39th days. Finally, the mice were sacrificed on the 40th day and lymph node cells were obtained for T cell studies. To document the electrophysiological evidence of EAMG, amplitudes of serial muscle action potentials were measured by electromyography (EMG) during the repetitive stimulation of the nerve in immunized mice, using the Mystro EMG system (TECA Corporation). A pair of wire electrodes were surgically implanted, encircling the sciatic nerve, two days before EMG. The nerve was stimulated through the implanted electrodes by 3 Hz trains of supramaximal electric current with a duration of 200 microseconds. The corresponding muscle action potentials were recorded with an electrode subcutaneously inserted over the gastrocnemius muscle. A reference electrode was placed at the ankle. Ether inhalation was used during the surgical and recording procedures. […] Students' t-test was used to analyze the differences of amplitude changes between the two groups. A typical myasthenic response of a greater than 10% decrement was considered to constitute an electrophysiological evidence of EAMG. The frequency of electrophysiological EAMG was calculated in each group and analyzed by chi-square test.

Compound | decremental amplitude after edrophonium
CC[N+](C)(C)c1cccc(O)c1 [edrophonium chloride, reference compound] | -13%

Same assay, conditions: i.p. injection of 250 μg

Compound | reversibility of typical myasthenic decremental response
CC[N+](C)(C)c1cccc(O)c1 [edrophonium chloride, reference compound] | reversible
